Reference: patent publication US11793824B2, “Administration of nicotinamide mononucleotide in the treatment of disease” (Washington University, priority 2013, dated 2023)
Entries after “also recorded” stand apart in the source; their conditions may differ.

Assays:
[1] = 12 month-long NMN administration study: adverse effects and toxicity; assay type: in vivo
Experimental: (§1) A 12 month-long NMN administration study using wild-type mice under a regular chow-fed condition was conducted. NMN was administered through drinking water, and two doses of NMN, 100 and 300 mg/kg body weight/day, were tested. […] To assess beneficial and possible adverse effects of NMN, a variety of physiological parameters were periodically monitored, including body weight, body temperature, food and water intake, fed and fasted blood glucose levels, fed and fasted plasma lipid panels, and glucose and insulin tolerance, in NMN-administered and control mice. Blood chemistry, blood cell counts, urine strip test, and other physiological tests including physical activity test were also checked.

[2] = Fundus biomicroscopy of aged mice; assay type: in vivo, mouse; settings: 18 months of age
Experimental: as §1
(§2) In the long-term NMN administration study (See Methods; Administration of NMN through Drinking Water and Determination of NMN Stability and Toxicity), retinal function was evaluated by fundus biomicroscopy and electroretinography (ERG). FIG. 11 illustrates fundus biomicroscopy images from control and NMN-administered mice. For each group, five mice were examined, and two representative images are shown.

[3] = Electroretinography (ERG) of aged mice; assay type: in vivo, mouse
Experimental: as §1, §2
FIG. 12A-C illustrates electroretinograms from control and NMN-administered mice. Amplitudes of scotopic a and b (FIG. 12A, FIG. 12B) and photopic b (FIG. 12C) waves over each stimulus range are shown. […] The data were analyzed with the two-way repeated ANOVA. […]

[4] = Tear production, modified Schirmer's test; assay type: in vivo, mouse
Experimental: as §1
In this long-term NMN administration study (See Methods; Administration of NMN through Drinking Water and Determination of NMN Stability and Toxicity), tear production was assessed in control and NMN-administered mice with modified Schirmer's test. All values are presented as mean±SEM. **p<0.01.

[5] = tested on: Nampt Ad-Cre infected NSPCs; assay: Nampt Ad-Cre infected neurospheres with or without NMN: NAD+, proliferation, differentiation; assay type: cell-based, mouse
Experimental: NAD+ levels were determined using an HPLC system (Shimadzu) with a Supelco LC-18-T column (15 cm×[…]; Sigma), as described previously (Yoshino et al, 2011).
Neurospheres derived from Nampt^flox/flox mice were infected with Ad5 Cre recombinase- or b-galactosidase-expressing (LacZ, control) adenoviruses at an MOI of 100. All assessments were performed at least 6 days post infection.
Neurospheres derived from Nampt^flox/flox mice were dissociated by trypsin digestion and seeded at similar cell densities in 24-well plates with fresh growth medium. Every 24 hours, neurospheres from triplicate wells were collected, dissociated, and counted on a hemocytometer using 0.2% trypan blue exclusion to distinguish viable cells. For analysis of neurosphere diameter, the largest neurosphere in each well was imaged (20× objective) and the diameter was calculated using ImageJ. For secondary neurosphere analysis, the total number of neurospheres in each well was counted at 7 days post-plating.
Three to five days after their first passage, neurospheres were trypsinized, washed with dissociation medium, and plated at 150,000 cells per well in 24-well plates in differentiation medium [growth medium without FGF and EGF and with BDNF (5 ng/mL, Peprotech, 450-02) on glass coverslips coated with poly-D-lysine (50 ug/mL; Sigma) and laminin (20 ug/mL; BD Biosciences)]. 6-well plates were coated with poly-D-lysine (20 ug/mL) and laminin (10 ug/mL). […] The percentage of oligodendrocyte precursor cells (OPCs) generated was analyzed after 2 d of differentiation, and the percentage of differentiated oligodendrocytes was analyzed after 6-7 d of differentiation. […]
Nampt Ad-Cre NSPCs were unable to increase their cell number between 24 and 144 hours of culture. […] Since NSPC self-renewal decisions can also contribute to cell number, the inventors assessed secondary neurosphere formation, an assay that quantifies the ability of neurosphere inhabitant cells to reformulate neurospheres upon dissociation. […]

For `NC(=O)c1ccc[n+]([C@@H]2O[C@H](COP(=O)([O-])O)[C@@H](O)[C@H]2O)c1` [NMN, nicotinamide mononucleotide], the “adverse effects or signs of toxicity” value ([1]; 100 mg/kg or 300 mg/kg body weight/day in drinking water, 12 months) was “no adverse effects, such as malnutrition, or signs of toxicity were observed; also recorded: without showing any serious side effects”, the water intake ([1]; NMN in drinking water, through the experimental period) was “did not change significantly” and the “adverse effect on glucose metabolism” value ([1]; long-term NMN administration) was “does not show any adverse effect on glucose metabolism”. The “mice with dramatic reductions in intraretinal whitish deposits” value ([2]; 100 mg/kg) was “two”, the “mice with dramatic reductions in intraretinal whitish deposits” value ([2]; 300 mg/kg) was “four” and the “scotopic a wave amplitudes” value ([3]; at 0 and 5 db (300 mg/kg), 5 db (100 mg/kg), aged mice) was “significantly higher amplitudes”. For the same molecule, the photopic b wave ([3]; entire range of stimulus, 100 and 300 mg/kg groups) was “trend of improvement”, the tear production ([4]; 300 mg/kg group) was “comparable to the maximal tear production through the mouse lifespan” and the tear production ([4]; 18 month-old mice, 100 and 300 mg/kg) was “increased tear production in a dose-dependent manner”. The “rescue of reduction in NAD+ levels in Nampt Ad-Cre NSPCs” value ([5]; NMN 100 μM, 48 hours, eight days post deletion) was “rescued”, the “proliferative potential of Nampt Ad-Cre cells” value ([5]; NMN 200 μM) was “fully reactivate” and the “defects in differentiation (oligodendrogenesis, Nestin+ retention) of Nampt Ad-Cre NSPCs” value ([5]; treatment with NMN, 6-7 days of differentiation) was “rescued defects in oligodendrogenesis”.
